This is an account of results in publication PMC4965013, “Open Source Drug Discovery with the Malaria Box Compound Collection for Neglected Diseases and Beyond” (PLoS Pathogens, 2016).

Experiment [1] has as its system Leishmania infantum MHOM/MA/BE/67. Conditions: Run 1 and Run 2; ref [88]; read-out: L. infantum IC50 positive control; cited from earlier work.
The test system of experiment [2] is Neospora caninum Nc-1 tachyzoites. The experiment in a line: Neospora caninum Nc-Betagal proliferation. The experiment is classed as cell-based.
For a further experiment, the system named is Toxoplasma gondii TS-4. Conditions: ref [46]; cited from earlier work.
The subject of another experiment is P. falciparum Dd2. The experiment is described as follows: Malaria Sybr Green I Fluorescence assay Dd2 Horrocks. Format: cell-based. Conditions: Plasmodium falciparum, DD2, 48 h; read-out: P. falciparum Dd2 asexual blood stage EC50 Horrocks. On the procedure: Column S: Horrocks group (data presented first in this paper). Asexual Dd2 inhibition of growth (IC50s): IC50 for the Dd2 clone of Plasmodium falciparum were determined using the Malaria Sybr Green I Fluorescence assay. Drug assays were initiated using a 2% trophozoite stage parasitaemia and 2% hematocrit and fluorescence measured after 48 h as fully described in Hasenkamp et al.[53]. Log dose-response curves were plotted in GraphPad Prism (v5.0). The controls for Dd2 using our 48hr Sybr Green I assay were (rounded to nearest nM): Chloroquine 209nM, Mefloquine 11nM, Quinine 246nM, Dihydroartemisinin 4nM, Artemether 10nM, Atovaquone 3nM.

Experiment [3] deals with P. falciparum NF54 gametocytes stage IV/V. The experiment is described as follows: Gametocyte PrestoBlue resazurin assay Mancama. To be noted: reference control. Format: cell-based.
For experiment [4], the system named is P. falciparum NF54Pfs16 gametocytes stage I-III. To be noted: ref [61]; read-out: gametocyte early stage (I-III) luciferase EC50; cited from earlier work.
For experiment [5], the system named is P. falciparum NF54Pfs16 gametocytes stage IV-V. Conditions: ref [62]; read-out: gametocyte late stage (IV-V) luciferase EC50; cited from earlier work.
The test system of experiment [6] is P. falciparum NF54 GFP-Pfs16 gametocytes stage I-III. To be noted: ref [64]; read-out: gametocyte early stage (I-III) GFP-MTR EC50; cited from earlier work.
Experiment [7] has as its system P. falciparum NF54 GFP-Pfs16 gametocytes stage IV-V. To be noted: ref [64]; read-out: gametocyte late stage (IV-V) GFP-MTR EC50; cited from earlier work.
The test system of experiment [8] is Trypanosoma brucei rhodesiense STIB 900. Conditions: Run 1 and Run 2; ref [88]; read-out: T. rhodesiense IC50 positive control; cited from earlier work.
For another experiment, the system named is T. b. brucei Squib 427. Conditions: Run 1 and Run 2; ref [88]; read-out: T. brucei brucei IC50 positive control; cited from earlier work.
Another experiment concerns the target T1, PfA-M1 (Plasmodium falciparum, UniProt O96935).
T1 construct: encoding residues 192-1085 of native PfA-M1; hexahistidine (N); TEV cleavage site (ENLYFQS) (N); made in house; host or cells: Escherichia coli BL21 (DE3) Rosetta 2
The experiment in a line: rPfA-M1 aminopeptidase activity (Florent). Format: biochemical, P. falciparum. Conditions: 100µM.

The subject of the next experiment is T. cruzi Tulahuen. To be noted: ref [84]; read-out: Trypanosoma cruzi Tulahuen intracellular amastigotes in MRC5 cell line EC50; cited from earlier work.

The structures appear in SMILES notation. Several values for one entry are separate records, joined by “and”; a condition that tells them apart may be missing. Equal entries are not always repeated.

T1 sequence (O96935 192-1085): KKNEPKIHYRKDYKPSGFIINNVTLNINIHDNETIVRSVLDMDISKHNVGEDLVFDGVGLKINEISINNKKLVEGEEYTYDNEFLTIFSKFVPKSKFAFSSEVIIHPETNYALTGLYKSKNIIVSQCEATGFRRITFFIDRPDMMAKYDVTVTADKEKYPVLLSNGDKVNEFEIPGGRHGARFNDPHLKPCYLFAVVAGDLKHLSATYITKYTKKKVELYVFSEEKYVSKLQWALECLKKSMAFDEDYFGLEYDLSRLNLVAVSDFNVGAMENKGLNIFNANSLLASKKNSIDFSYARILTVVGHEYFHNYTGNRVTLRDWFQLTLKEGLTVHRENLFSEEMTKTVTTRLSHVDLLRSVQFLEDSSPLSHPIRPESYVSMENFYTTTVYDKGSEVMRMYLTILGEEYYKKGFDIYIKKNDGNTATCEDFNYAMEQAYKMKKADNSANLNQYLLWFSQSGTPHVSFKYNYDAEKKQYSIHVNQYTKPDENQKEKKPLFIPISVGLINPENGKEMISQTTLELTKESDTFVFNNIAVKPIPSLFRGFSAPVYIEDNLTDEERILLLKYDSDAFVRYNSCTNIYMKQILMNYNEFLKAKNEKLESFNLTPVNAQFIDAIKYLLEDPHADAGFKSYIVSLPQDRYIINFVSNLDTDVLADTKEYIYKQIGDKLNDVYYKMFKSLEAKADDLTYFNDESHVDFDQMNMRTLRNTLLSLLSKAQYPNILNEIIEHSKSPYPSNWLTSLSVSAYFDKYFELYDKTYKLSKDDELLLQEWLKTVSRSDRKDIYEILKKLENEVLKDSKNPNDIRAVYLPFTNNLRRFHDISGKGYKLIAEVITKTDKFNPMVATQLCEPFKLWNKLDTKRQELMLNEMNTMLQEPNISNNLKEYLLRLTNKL

The term IC50 denotes the midpoint of a concentration-inhibition curve. Consider `CCCCCCCCCCCCCCCCOP(=O)([O-])OCC[N+](C)(C)C` [Miltefosine, reference compound], for which the IC50 in [1] is 7100 nM and 9000 nM.
For `O=C(Nc1ccc(N2CCN(Cc3ccccc3)CC2)cc1)c1cccs1` [MMV019670], the “non-toxic N. caninum actives” value in [2] is “non-toxic N. caninum actives”.
For the molecule `Clc1ccc2c(N3CCCC3)ccnc2c1` [MMV007363], the “non-toxic compounds active against T. gondii” value (shortened to “non-toxic compounds active”) in the experiment on Toxoplasma gondii TS-4 was “active”.
For orientation: EC50 means the concentration that produces a half-maximal response. With `C[C@H]1[C@@H](O)O[C@@H]2O[C@@]3(C)CC[C@H]4[C@H](C)CC[C@@H]1[C@@]24OO3` [Dihydroartemisinin, reference compound], the EC50 in the experiment with P. falciparum Dd2 is 4 nM. The “DHA inhibition of stage IV/V gametocytes” value in experiment [3] amounted to 84%.
As to `CN(C)CCNc1cc(-c2ccccc2)nc2ccccc12` [MMV006704], the “non-toxic compounds active” value in the experiment with Toxoplasma gondii TS-4 is “active”.
Regarding `CCCCN(CCCC)S(=O)(=O)c1ccc(NC(=O)c2ccco2)cc1` [MMV007881], the “non-toxic compounds active” value with Toxoplasma gondii TS-4 is given as “active”.
For the molecule `CCOc1ccc2cc(-c3nn(CC4CCN(C)CC4)c4ncnc(N)c34)ccc2c1` [BKI-1294, reference compound], the “N. caninum proliferation, positive control” value in experiment [2] (1µM) is “complete block of proliferation”.
`CCCc1c(C)nc2ccc(Br)cc2c1O` [MMV666095]: the “non-toxic compounds active” value in the experiment on Toxoplasma gondii TS-4 is recorded as “active”.
As to `CN(C)c1ccc2nc3ccc(=[N+](C)C)cc-3sc2c1` [methylene blue, reference compound], the EC50 in experiment [4] was 30 nM; in experiment [5], 38 nM; in experiment [6], 280 nM; in [7], 287 nM.
Turning to `CCOc1ccccc1NC(=O)CN1CCN(C(=O)c2ccco2)CC1` [MMV007791], the “non-toxic compounds active” value in the experiment with Toxoplasma gondii TS-4 is “active”.
On to `Cc1ccc(C(=O)Nc2ccc(S(=O)(=O)O)c3cc(S(=O)(=O)O)cc(S(=O)(=O)O)c23)cc1NC(=O)c1cccc(NC(=O)Nc2cccc(C(=O)Nc3cc(C(=O)Nc4ccc(S(=O)(=O)O)c5cc(S(=O)(=O)O)cc(S(=O)(=O)O)c45)ccc3C)c2)c1` [Suramin, reference compound], for which the IC50 in experiment [8] was 70 nM and 50 nM; in the experiment with T. b. brucei Squib 427, 60 nM and 50 nM.
With `Cc1ccc(NC(=O)Nc2cccc(Cl)c2)cc1F` [MMV000911], the “non-toxic N. caninum actives” value in experiment [2] was “non-toxic N. caninum actives”.
As to `CN(C)c1ccc(-c2nc3cc(N)ccc3[nH]2)cc1` [MMV666102], at PfA-M1, the “effect on rPfA-M1 in words” value was “particularly effective”.
For the molecule `CCOc1cccc2sc(N(Cc3cccnc3)C(=O)C3CCCCC3)nc12` [MMV001230], the EC50 with T. cruzi Tulahuen was 156 nM.
